Data from PMC4845953 (Journal of materials chemistry. B, Materials for biology …, 2016).
Non-standard residues stand in square brackets, D forms with d. Residues, ends and D or L forms follow the SMILES beside them. *: point of attachment. d(pY) = N[C@H](Cc1ccc(OP(=O)(O)O)cc1)C(=O)O; Acetyl(2-naphthyl) = O=C(Cc1ccc2ccccc2c1)*; pY = N[C@@H](Cc1ccc(OP(=O)(O)O)cc1)C(=O)O

Legend:
[1] = type: physicochemical; conditions: pH 7.4
[2] = type: physicochemical; conditions: pH 7.4; remark: listed apart in the source
[3] = type: physicochemical; conditions: pH 7.4; remark: listed apart in the source
HeLa cells = conditions: 48 h
proteinase K = proteinase K (Parengyodontium album, UniProt P06873)
Sequence of proteinase K (P06873 106-384): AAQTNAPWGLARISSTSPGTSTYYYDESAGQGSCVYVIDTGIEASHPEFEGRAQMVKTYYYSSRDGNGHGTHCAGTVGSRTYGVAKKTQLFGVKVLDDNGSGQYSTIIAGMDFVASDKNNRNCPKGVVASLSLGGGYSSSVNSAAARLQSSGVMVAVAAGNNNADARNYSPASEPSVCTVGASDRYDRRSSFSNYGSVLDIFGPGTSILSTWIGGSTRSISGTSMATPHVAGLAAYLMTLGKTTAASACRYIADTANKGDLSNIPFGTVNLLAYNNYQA

Row | SMILES | ALP gel: TEM fiber width [1] | ALP gel: dynamic strain sweep, Max. G′ [2] [Pa] | ALP gel: dynamic strain sweep, critical strains [2] [%] | time to hydrogel after addition of ALP [3] [min] | IC50 (HeLa cells) [µM] | proteolytic stability towards proteinase K (proteinase K)
1 | NC(=O)CC[C@H](NC(=O)[C@H](CCC(N)=O)NC(=O)[C@H](CC(N)=O)NC(=O)[C@H](CC(N)=O)NC(=O)CNC(=O)[C@H](Cc1ccccc1)NC(=O)[C@H](Cc1ccccc1)NC(=O)Cc1ccc2ccccc2c1)C(=O)N[C@@H](CC(N)=O)C(=O)N[C@@H](Cc1ccc(O)cc1)C(=O)O [Precursor L-3] ({Acetyl(2-naphthyl)}-FFGNNQQNY-OH) | about 8 ± 2 nm | 33 | 13.2 |  |  | 
2 | NC(=O)CC[C@@H](NC(=O)[C@@H](CCC(N)=O)NC(=O)[C@@H](CC(N)=O)NC(=O)[C@@H](CC(N)=O)NC(=O)CNC(=O)[C@@H](Cc1ccccc1)NC(=O)[C@@H](Cc1ccccc1)NC(=O)Cc1ccc2ccccc2c1)C(=O)N[C@H](CC(N)=O)C(=O)N[C@H](Cc1ccc(O)cc1)C(=O)O [Precursor D-3] ({Acetyl(2-naphthyl)}-[dF][dF]G[dN][dN][dQ][dQ][dN][dY]-OH) |  | 132 | 7.0 |  |  | 
3 | NC(=O)CC[C@H](NC(=O)[C@H](CCC(N)=O)NC(=O)[C@H](CC(N)=O)NC(=O)[C@H](CC(N)=O)NC(=O)CNC(=O)[C@H](Cc1ccccc1)NC(=O)[C@H](Cc1ccccc1)NC(=O)Cc1ccc2ccccc2c1)C(=O)N[C@@H](CC(N)=O)C(=O)N[C@@H](Cc1ccc(OP(=O)(O)O)cc1)C(=O)O [Precursor L-3P, N’FFGNNQQNYp] ({Acetyl(2-naphthyl)}-FFGNNQQN[pY]-OH) | 8 ± 2 nm | 32.8 | 13.2 | 10 | 476 ± 21.4 | almost completely degrade
4 | NC(=O)CC[C@@H](NC(=O)[C@@H](CCC(N)=O)NC(=O)[C@@H](CC(N)=O)NC(=O)[C@@H](CC(N)=O)NC(=O)CNC(=O)[C@@H](Cc1ccccc1)NC(=O)[C@@H](Cc1ccccc1)NC(=O)Cc1ccc2ccccc2c1)C(=O)N[C@H](CC(N)=O)C(=O)N[C@H](Cc1ccc(OP(=O)(O)O)cc1)C(=O)O [Precursor D-3P, N’ffgnnqqnyp] ({Acetyl(2-naphthyl)}-[dF][dF]G[dN][dN][dQ][dQ][dN][d(pY)]-OH) |  |  |  |  | > 500 | high resistance
